The term IC50 denotes the concentration that gives 50% inhibition.

These results are taken from patent US20240309014A1, “MACROCYCLIC COMPOUNDS AND USES THEREOF” (President and Fellows of Harvard College, priority 2017, published 2024).

Assay [1] concerns L-1210 Leukemia. Conditions: cited from earlier work.
For assay [2], the system named is KPL-4 subcutaneous xenograft. Put plainly: KPL-4 xenograft model as monotherapy (FIG. 12). In kind it is in vivo, nude mice. As for the experimental part: A human HER-2 positive breast cancer cell line KPL-4, which had been cultured in a DMEM containing 10% FBS, and penicillin-streptomycin, was adjusted to a concentration of 1×10^8 cells/mL with Hanks' Balanced Salt Solution to prepare a cell suspension. The cell suspension was inoculated in a volume of 100 μL into a subcutaneous part of a right flank of nude mice, 8 weeks of ages (CAnN.Cg-Foxnlnu/CrlCrlj, female, Charles River Laboratories Japan Inc.). Eleven days after cell inoculation (Day 1), the shortest diameter and the longest diameter of a tumor in each mouse were measured by using an electronic digital caliper (Digimatic™ caliper, Mitutoyo Corporation), so as to calculate the volume of the tumor in accordance with the following calculation formulae: […]
On the basis of the volumes of tumors obtained on Day 1, the mice were grouped such that averages of the tumor volumes were substantially equal among the groups. The experiment was conducted on groups each consisting of six mice. The test compound was dissolved in DMSO and a solution was stored in the freezer before use. Immediately before the administration, the stock solution was diluted with saline. The test compound in saline was intravenously once-weekly administered at 20 μg/kg, 60 μg/kg, or 180 μg/kg for 2 weeks (on Day 1 and Day 8).

Assay [3] relates to Tenascin-C and EDA-fibronectin. Put plainly: Effects on Tenascin-C and EDA-fibronectin in the FaDu subcutaneous model (FIG. 15). Conditions: Compound (1) 180 μg/kg + cetuximab 10 mg/kg on Day 1, tumors five days after, vs control tumors. In kind it is in vivo, nude mice. As for the experimental part:
A human squamous cell carcinoma of the head and neck (SCCHN) cell line FaDu, which had been cultured in an RPMI-1640 medium containing 10% FBS, and penicillin-streptomycin (culture medium), was adjusted to a concentration of 5×10^7 cells/mL with culture medium to prepare a cell suspension. The cell suspension was inoculated in a volume of 100 μL into a subcutaneous part of a right flank of nude mice, 6 weeks of ages (CAnN.Cg-Foxnlnu/CrlCrlj, female, Charles River Laboratories Japan, Inc.). Ten days after cell inoculation, the mice were grouped such that averages of the tumor volumes were substantially equal among the groups. The experiment was conducted on groups each consisting of 5 mice. Compound (1) was dissolved in DMSO and a solution was stored in the freezer before use. […] Five days after the single administration, tumor samples were collected and fixed with IHC Zinc Fixative (BD Pharmingen) at 4° C. for 24 hr. Paraffin-embedded tissues were sectioned (3 μm), mounted on positively charged slides, and air-dried. Sections were deparaffinized, conditioned and the antigens were retrieved using microwave with 1 mM EDTA at pH 6.0 for Tenascin-C. For EDA-fibronectin, the antigens retrieval procedure was not necessary. […]

The test system of assay [4] is human bladder carcinoma cell line RT4. Put plainly: Bladder carcinoma cell line growth inhibition assay, RT4. Format: cell-based. The note with it: 72 h, 3 days incubation, CellTiter-Glo 2.0. On the procedure:
In this assay, the growth inhibitory activity of Compound (1) in human bladder carcinoma cell lines RT4, RT112/84, and UM-UC-3 was measured. RT4 and RT112/84 cells were maintained in a RPMI-1640 (FUJIFILM Wako Pure Chemical Corporation, 189-02025) medium containing 10% fetal bovine serum (FBS: SIGMA Life Science, 172012-500ML), and penicillin and streptomycin (FUJIFILM Wako Pure Chemical Corporation, 168-23191) in a 5% CO2 incubator (37° C.). UM-UC-3 cells were maintained in an E-MEM (FUJIFILM Wako Pure Chemical Corporation, 051-07615) medium containing 10% FBS, 1 mM Sodium Pyruvate (FUJIFILM Wako Pure Chemical Corporation, 190-14881), and penicillin and streptomycin in a 5% CO2 incubator (37° C.). To each well of a 96 well plate (Coming, 3904), 90 μL of each cell suspension adjusted to a concentration of 5.55×10^3 cells/mL (RT4 or UM-UC-3) or 3.33×10^4 cells/mL (RT112/84) with the culture medium was added, and the cells were incubated overnight in a 5% CO2 incubator (37° C.). On the next day, 10 μL of Compound (1) in three-fold dilution series suspended in the culture medium was added to each well, and the resultant was incubated for 3 days in a 5% CO2incubator (37° C.). Then, cell viability was determined by CellTiter-Glo® 2.0 Assay (Promega Corporation, G9243) with ARVO-X4 Multimode Plate Reader (Perkin-Elmer, Wellesley, MA). […]
(Cellular ATP, detected with luciferase, serves as a proxy for viable cell number.)

Turning to `C=C1C[C@@H]2CC[C@@]34C[C@H]5O[C@H]6[C@@H](O3)[C@H]3O[C@H](CC[C@@H]3O[C@H]6[C@H]5O4)CC(=O)O[C@@H]3[C@@H](C)[C@@H]4O[C@@H]5C[C@]6(C[C@@H]7O[C@]8(C[C@H](C)[C@@H]9O[C@H]([C@@H](O)C[C@@H](O)CO)C[C@@H]9O8)C[C@H](C)[C@@H]7O6)O[C@@H]5C[C@@H]4O[C@H]3C[C@H]3O[C@@H](CC[C@@H]1O2)C[C@@H](C)C3=C` [Halichondrin B, reference compound], the “activity against L-1210 Leukemia in vivo” value in assay [1] was “highly active”.

`C=C1C[C@@H]2CC[C@@]34C[C@H]5O[C@H]6[C@@H](O3)[C@H]3O[C@H](CC[C@@H]3O[C@H]6C5O4)CC(=O)O[C@@H]3[C@@H](C)[C@@H]4O[C@@H]5C[C@]6(C[C@@H]7O[C@]8(C[C@H](C)[C@@H]9O[C@H](CN)[C@H](O)C[C@@H]9O8)C[C@H](C)[C@@H]7O6)O[C@@H]5C[C@@H]4O[C@H]3C[C@H]3O[C@@H](CC[C@@H]1O2)C[C@@H](C)C3=C` (stereo in doubt) [Compound (1)]: the antitumor effect result in assay [2] (60 μg/kg i.v. Day 1 and Day 8) is given as “tumor regression”; in assay [2] (180 μg/kg i.v. Day 1 and Day 8), “tumor regression”. The “xenograft tumors on Day 15” value in assay [2] (180 μg/kg i.v. Day 1 and Day 8) was “completely eradicated the xenograft tumors in all mice”. In assay [3], the “expression levels of Tenascin-C and ED-A fibronectin” value is “reduced”. Half-maximal inhibition in assay [4] (IC50) was put at 0.11 nM.
